Each structure is given as a SMILES string.

Targets include ALK (Homo sapiens, UniProt Q9UM73); CDK17 (Homo sapiens, UniProt Q00537); CLK3 (Homo sapiens, UniProt P49761); DMPK (Homo sapiens, UniProt Q09013); DYRK1A (Homo sapiens, UniProt Q13627); EIF2AK2 (Homo sapiens, UniProt P19525); IRAK4 (Homo sapiens, UniProt Q9NWZ3); MAK (Homo sapiens, UniProt P20794); MAP3K12 (Homo sapiens, UniProt Q12852); MAP4K4 (Homo sapiens, UniProt O95819); MAP4K5 (Homo sapiens, UniProt Q9Y4K4); MAPK11 (Homo sapiens, UniProt Q15759); MAPK12 (Homo sapiens, UniProt P53778); NLK (Homo sapiens, UniProt Q9UBE8); PIK3CG (Homo sapiens, UniProt P48736); PIM1 (Homo sapiens, UniProt P11309); PIM3 (Homo sapiens, UniProt Q86V86); PLK1 (Homo sapiens, UniProt P53350); STK25 (Homo sapiens, UniProt O00506); STK4 (Homo sapiens, UniProt Q13043).

What all share (assay): biochemical
Set-up in all cases: KINOMEscan competition binding, DNA-tagged kinase against immobilised ligand, qPCR read-out
What all share (conditions): read-out: Percent Control

MAK, sequence (P20794 whole entry): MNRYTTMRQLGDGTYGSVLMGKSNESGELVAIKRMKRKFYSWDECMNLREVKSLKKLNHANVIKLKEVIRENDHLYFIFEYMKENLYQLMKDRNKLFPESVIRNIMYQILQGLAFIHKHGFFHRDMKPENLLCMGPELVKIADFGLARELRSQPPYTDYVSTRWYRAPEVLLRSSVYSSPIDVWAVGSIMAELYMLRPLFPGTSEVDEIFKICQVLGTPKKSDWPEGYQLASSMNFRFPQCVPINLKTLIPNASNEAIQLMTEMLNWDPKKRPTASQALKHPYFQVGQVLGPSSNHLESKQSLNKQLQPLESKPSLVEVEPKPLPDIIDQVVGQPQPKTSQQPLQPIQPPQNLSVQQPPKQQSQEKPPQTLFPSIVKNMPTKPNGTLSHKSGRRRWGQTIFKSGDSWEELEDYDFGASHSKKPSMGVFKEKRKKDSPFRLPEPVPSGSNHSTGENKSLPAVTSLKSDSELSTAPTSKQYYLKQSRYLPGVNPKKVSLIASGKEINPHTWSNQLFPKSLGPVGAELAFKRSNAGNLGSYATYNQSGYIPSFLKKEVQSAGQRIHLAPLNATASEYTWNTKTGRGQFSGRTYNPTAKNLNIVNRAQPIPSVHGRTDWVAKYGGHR
MAP4K4, sequence (O95819 whole entry): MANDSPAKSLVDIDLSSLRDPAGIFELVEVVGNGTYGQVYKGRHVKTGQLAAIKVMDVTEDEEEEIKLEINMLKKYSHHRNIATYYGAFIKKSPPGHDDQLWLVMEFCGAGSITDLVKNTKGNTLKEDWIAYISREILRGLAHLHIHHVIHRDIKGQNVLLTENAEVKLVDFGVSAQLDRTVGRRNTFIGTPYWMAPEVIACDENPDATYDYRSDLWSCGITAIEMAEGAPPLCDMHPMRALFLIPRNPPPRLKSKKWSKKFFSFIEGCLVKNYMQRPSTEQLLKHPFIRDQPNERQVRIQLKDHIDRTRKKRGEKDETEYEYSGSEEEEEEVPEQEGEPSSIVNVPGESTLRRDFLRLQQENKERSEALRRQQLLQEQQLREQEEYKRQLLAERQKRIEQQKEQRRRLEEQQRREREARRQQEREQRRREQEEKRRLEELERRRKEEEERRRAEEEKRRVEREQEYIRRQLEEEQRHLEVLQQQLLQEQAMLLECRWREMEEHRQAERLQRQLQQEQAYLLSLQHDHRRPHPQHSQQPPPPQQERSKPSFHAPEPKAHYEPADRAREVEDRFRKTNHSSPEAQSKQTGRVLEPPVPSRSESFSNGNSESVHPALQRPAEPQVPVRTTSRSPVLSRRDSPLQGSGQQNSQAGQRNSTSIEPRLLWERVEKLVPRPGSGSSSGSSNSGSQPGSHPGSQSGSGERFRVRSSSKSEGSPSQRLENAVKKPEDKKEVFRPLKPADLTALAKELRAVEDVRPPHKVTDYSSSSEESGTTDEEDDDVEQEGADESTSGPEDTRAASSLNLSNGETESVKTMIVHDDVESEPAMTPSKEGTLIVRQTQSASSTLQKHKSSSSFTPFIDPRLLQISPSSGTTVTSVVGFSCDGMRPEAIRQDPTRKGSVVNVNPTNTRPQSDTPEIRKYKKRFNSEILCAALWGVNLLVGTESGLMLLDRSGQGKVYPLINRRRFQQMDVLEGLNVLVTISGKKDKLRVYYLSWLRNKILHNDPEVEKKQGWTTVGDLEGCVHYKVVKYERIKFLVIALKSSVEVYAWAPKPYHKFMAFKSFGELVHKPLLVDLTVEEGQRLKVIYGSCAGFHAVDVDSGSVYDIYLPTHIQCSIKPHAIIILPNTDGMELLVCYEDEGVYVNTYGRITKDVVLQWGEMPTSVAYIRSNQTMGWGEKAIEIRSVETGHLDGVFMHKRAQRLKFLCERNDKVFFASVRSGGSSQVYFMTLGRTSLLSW
EIF2AK2, sequence (P19525 whole entry): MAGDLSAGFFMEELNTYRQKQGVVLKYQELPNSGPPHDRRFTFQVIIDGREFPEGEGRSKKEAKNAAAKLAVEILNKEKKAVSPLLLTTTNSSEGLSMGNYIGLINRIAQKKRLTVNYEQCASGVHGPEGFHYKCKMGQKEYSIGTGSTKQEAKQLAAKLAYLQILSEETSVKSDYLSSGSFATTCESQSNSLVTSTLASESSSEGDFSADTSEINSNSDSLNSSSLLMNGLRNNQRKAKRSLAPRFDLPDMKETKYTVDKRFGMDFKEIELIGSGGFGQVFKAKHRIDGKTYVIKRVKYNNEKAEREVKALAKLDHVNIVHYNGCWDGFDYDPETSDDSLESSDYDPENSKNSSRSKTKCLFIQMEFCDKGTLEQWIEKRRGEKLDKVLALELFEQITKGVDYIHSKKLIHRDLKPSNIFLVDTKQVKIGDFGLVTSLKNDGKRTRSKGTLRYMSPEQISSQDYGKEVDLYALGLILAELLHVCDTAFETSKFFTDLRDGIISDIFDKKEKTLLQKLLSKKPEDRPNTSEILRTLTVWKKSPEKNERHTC
MAPK11, sequence (Q15759 whole entry): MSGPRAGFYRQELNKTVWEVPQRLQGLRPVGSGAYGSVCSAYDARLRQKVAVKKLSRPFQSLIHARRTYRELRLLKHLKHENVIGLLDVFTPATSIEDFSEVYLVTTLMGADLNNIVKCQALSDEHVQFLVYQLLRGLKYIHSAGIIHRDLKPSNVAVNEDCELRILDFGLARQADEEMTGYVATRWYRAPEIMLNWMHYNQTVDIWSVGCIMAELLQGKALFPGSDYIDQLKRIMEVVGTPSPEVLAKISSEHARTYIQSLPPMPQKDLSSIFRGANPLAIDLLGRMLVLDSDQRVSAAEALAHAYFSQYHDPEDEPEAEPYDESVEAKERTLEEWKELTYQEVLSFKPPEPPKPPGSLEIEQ
CLK3, sequence (P49761 whole entry): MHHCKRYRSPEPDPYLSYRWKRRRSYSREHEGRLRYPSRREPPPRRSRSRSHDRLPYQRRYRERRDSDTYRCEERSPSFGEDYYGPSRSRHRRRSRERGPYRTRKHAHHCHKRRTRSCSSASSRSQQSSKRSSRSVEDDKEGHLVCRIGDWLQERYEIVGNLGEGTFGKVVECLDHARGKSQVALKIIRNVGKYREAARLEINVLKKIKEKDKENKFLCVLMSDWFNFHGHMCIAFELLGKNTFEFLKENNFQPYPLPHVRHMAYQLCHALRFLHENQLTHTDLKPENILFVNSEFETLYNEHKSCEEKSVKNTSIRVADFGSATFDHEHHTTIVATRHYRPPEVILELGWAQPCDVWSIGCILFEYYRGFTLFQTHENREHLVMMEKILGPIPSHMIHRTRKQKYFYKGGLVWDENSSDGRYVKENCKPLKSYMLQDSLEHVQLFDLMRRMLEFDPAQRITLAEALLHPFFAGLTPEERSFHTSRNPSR
IRAK4, sequence (Q9NWZ3 whole entry): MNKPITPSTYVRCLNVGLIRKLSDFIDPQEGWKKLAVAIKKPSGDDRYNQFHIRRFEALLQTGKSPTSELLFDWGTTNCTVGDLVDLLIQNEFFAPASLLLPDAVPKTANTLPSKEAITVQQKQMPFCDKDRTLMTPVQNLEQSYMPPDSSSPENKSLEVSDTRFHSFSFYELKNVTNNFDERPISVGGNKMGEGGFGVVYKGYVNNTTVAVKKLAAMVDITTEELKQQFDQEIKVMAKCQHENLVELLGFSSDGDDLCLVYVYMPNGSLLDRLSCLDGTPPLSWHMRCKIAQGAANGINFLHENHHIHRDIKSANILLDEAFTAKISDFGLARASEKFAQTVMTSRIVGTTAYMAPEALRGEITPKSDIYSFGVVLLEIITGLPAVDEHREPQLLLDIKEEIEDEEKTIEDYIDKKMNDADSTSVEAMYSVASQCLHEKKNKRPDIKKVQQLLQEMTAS
MAP4K5, sequence (Q9Y4K4 whole entry): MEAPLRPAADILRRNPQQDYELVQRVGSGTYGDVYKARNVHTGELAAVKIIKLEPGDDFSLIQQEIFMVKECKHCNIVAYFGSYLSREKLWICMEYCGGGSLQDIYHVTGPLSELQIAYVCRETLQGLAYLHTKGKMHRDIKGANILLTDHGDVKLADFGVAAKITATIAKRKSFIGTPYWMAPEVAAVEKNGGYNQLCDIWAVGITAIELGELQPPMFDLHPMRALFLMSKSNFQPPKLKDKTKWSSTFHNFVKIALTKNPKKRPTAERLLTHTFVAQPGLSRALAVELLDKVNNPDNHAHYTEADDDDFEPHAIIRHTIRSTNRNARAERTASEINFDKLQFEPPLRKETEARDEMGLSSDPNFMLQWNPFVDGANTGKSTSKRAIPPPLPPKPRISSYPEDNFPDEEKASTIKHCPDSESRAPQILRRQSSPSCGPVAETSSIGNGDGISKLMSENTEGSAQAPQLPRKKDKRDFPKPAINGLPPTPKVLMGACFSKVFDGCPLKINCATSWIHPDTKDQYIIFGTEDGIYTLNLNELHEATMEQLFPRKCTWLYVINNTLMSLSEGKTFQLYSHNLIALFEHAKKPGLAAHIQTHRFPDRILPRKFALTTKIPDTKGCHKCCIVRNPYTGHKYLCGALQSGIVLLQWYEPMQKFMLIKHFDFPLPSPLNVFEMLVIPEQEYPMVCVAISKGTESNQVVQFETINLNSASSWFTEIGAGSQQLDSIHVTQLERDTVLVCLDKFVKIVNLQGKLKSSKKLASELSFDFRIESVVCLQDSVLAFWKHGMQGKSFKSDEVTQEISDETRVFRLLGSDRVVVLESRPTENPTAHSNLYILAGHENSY

With `Oc1ccc(C2=Cc3ccc(O)cc3OC2)cc1` [compound 1, idronoxil], the remaining binding at 10 µM worked out at 68% on ALK; 97% on CDK17; 70% at CLK3; 92% at DMPK; 34% on DYRK1A; 85% on EIF2AK2. The remaining binding at 10 µM at IRAK4 was determined as 79%; on MAK, 100%; at MAP3K12, 75%; on MAP4K4, 47%; on MAP4K5, 70%; at MAPK11 it was 85%. Moreover, the remaining binding at 10 µM on MAPK12 stood at 100%; on NLK, 67%; at PIK3CG, 79%; at PIM1, 34%; at PIM3, 40%; at PLK1 it was 77%. In addition, the remaining binding at 10 µM at STK25 amounted to 77%; at STK4, 97%.

The record behind these values is PMC10507085, “Pharmacological inhibition of TBK1/IKKε blunts immunopathology in a murine model of SARS-CoV-2 infection” (Nature Communications, 2023).
